In patent EP4741395A1, “NOVEL COMPOUND SENSITIVE TO NITROGEN MONOXIDE AND PHARMACEUTICAL COMPOSITION COMPRISING SAME” (Omniamed Co. Ltd, priority 2023, dated 2025):

Assays:
[1] = in vivo; conditions: male, C57BL/6, mouse, in vivo, po
Protocol: Specifically, the experimental animals were twelve six-week-old C57BL/6 male mice. The experimental animals were housed in polycarbonate cages in groups of four, and had free access to food and water. The animal housing room was maintained at a temperature of 20±1°C and humidity of about 50±5%, with a constant 12-hour light/dark cycle. The experimental animals were acclimated to the animal room environment for one week, and then randomly divided into three groups of four animals each based on body weight.

[2] = Efficacy on collagen-induced rheumatoid arthritis (arthritis score); format: in vivo, DBA/1 male mice
Protocol: (§1) The experimental animals were 30 8-week-old DBA/1 male mice. […] The number of normal mice was set to five in order to minimize the number of experimental animals. The group administered with Compound (1) consisted of 5 to 6 mice, a minimal number required to obtain statistically meaningful data given the limited amount of the drug.
(§2) In order to establish a rheumatoid arthritis model, 100 µL of a mixture solution in which 2 mg/mL of chick type II collagen and 1 mg/mL of Complete Freund's Adjuvant (CFA) were mixed in a ratio of 1:1 was administered intradermally to each of the mouse tails. After 19 days, 100 µL of an emulsion in which 2 mg/mL of chick type II collagen and Incomplete Freund's Adjuvant (IFA) were mixed in a ratio of 1:1 was administered intradermally to each of the mouse tails.
The test substances of Table 23 were administered orally every day according to the drug dosing period and dosing frequency. As for the rheumatoid arthritis score (arthritis score), the score of each of the four paws was quantified according to the criteria shown in the following Table 24, and the individual scores were summed to generate the final score.
as §1, with “31” for “30”, “(11)” for “(1)”, “5” for “5 to 6”, “drug. Each of the remaining groups consisted of 7 mice, with two extra mice added to account for experimental error.” for “drug.”
as §2
Oral administration was conducted daily according to the dose, dosing frequency and dosing period of Table 25. Based on the criteria shown in Table 24, rheumatoid arthritis score for the four paws were quantified and summed to generate the score.

[3] = mouse, in vivo, po, 800 mg/kg
[4] = Hematological toxicity evaluation after single oral administration (routine blood test)
[5] = HPLC analysis of nitrogen monoxide sensitivity (release of the low-molecular-weight compound); format: physicochemical; conditions: NaNO2 / sulfuric acid, 1 hour, room temperature; FIGS. 2A to 2C
Protocol: It was checked whether the pharmaceutical composition sensitive to nitrogen monoxide including the compound according to each of the Examples is capable of releasing a low-molecular-weight compound having pharmaceutical activity by separating a nitrogen monoxide scavenger in an environment where nitrogen monoxide is present.
A sample for HPLC analysis was prepared as follows. 28 mg of NaNO2 (0.41 mmol, 16.4 equiv) was dissolved in 0.3 mL of water, and then the mixture solution was cooled to 0°C to 5°C. After introducing 0.2 mL of sulfuric acid (0.1 mmol, 4 equiv) to the mixture solution, 12.2 mg of Compound (4) (0.025 mmol, 1 equiv), which was prepared in Example 4, dissolved in 0.2 mL of acetone was introduced thereto. The mixture solution was stirred for 1 hour at room temperature. After the reaction was finished, water and dichloromethane were introduced to the reaction solution for extraction. The organic layer was separated, then dried with magnesium sulfate, and filtered. […]
Specifically, referring to FIG. 2A, the peak of Compound (4) of Example 4, which is the pharmaceutical composition sensitive to nitrogen monoxide, was detected at 14.2 minutes. On the other hand, referring to FIG. 2B, the peak of Compound (4) disappeared in an environment where excess nitrogen monoxide is present, and a peak detected at 7.7 minutes was generated.

[6] = system: IFN-γ; test: IFN-γ reduction activity in Concanavalin A-treated splenocytes (quantitative ELISA); format: cell-based, C57BL/6 mouse; conditions: Mus musculus, Splenocyte, Concanavalin A 5 µg/mL, 72 hours, read-out: IFN-γ Reduction Activity (%) (Mean±SD)
Method in brief: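 Splenocytes from 8-week-old C57BL/6 mice at 5×10^6 cells/mL in RPMI 1640 with 10% FBS, stimulated with Concanavalin A (5 µg/mL) plus compound added concentration-dependently. Supernatant IFN-γ measured by quantitative ELISA after 72 h.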

[7] = system: splenocytes; test: Inhibitory activity on cell proliferation in splenocytes (CCK-8 analysis); format: cell-based, C57BL/6 mouse; conditions: Mus musculus, Splenocyte, Concanavalin A 5 µg/mL, 72 hours, read-out: Inhibitory Activity on Cell Proliferation (%) (Mean±SD)
[8] = system: Raw 264.7 cell line; test: NO scavenging activity in LPS-treated immune cells (Griess reagent); format: cell-based; conditions: Mus musculus, RAW264.7, Raw 264.7, LPS 500 ng/mL, 24 hours, read-out: NO Scavenging Activity (%) (Mean±SD)
[9] = Efficacy on DSS induced ulcerative colitis (disease activity index); format: in vivo, mice
Protocol: In order to establish an ulcerative colitis model, 2.5% DSS powder was mixed with drinking water and provided ad libitum. The DSS powder-containing drinking water was supplied for 5 to 6 days of disease induction period, and after that, normal drinking water was supplied.
The administered compounds of Table 21 were administered orally once daily. Hematochezia, diarrhea and body weight loss were scored according to the criteria shown in the following Table 22, and the scores were summed to calculate a disease activity index (DAI), which is shown in FIG. 4.
Efficacy of Compound (4) on ulcerative colitis was verified in the same manner as in Experimental Example 10-1, except that Compound (4) was used instead of Compound (1), and DSS was administered until day 5, and the drug was administered from day 6.

[10] = system: splenocytes; test: NO scavenging activity in Concanavalin A-treated splenocytes (Griess assay); format: cell-based, C57BL/6 mouse; conditions: Mus musculus, Splenocyte, Concanavalin A 5 µg/mL, 72 hours, read-out: NO Scavenging Activity (%) (Mean±SD)
Method in brief: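 Splenocytes from 8-week-old C57BL/6 mice at 5×10^6 cells/mL in RPMI 1640/10% FBS, stimulated with Concanavalin A (5 µg/mL) plus […] test composition added at plating. After 72 h culture, remaining NO in supernatant measured by Griess assay.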

[11] = 200 mg/kg single oral dose, mice, two days after administration
[12] = 800 mg/kg single oral dose, mice, two days after administration

| Compound | MTD at 4 days [1] [mg/kg] | rheumatoid arthritis-alleviating efficacy (arthritis score) ([2]; 10 mg/kg oral twice daily (BID), day 39 (p<0.05) and day 40 (p<0.01), FIG. 7) | rheumatoid arthritis-alleviating efficacy (arthritis score) ([2]; 40 mg/kg oral once daily, from day 33 after disease induction (p<0.01) to the end, FIG. 6) | hematological toxicity [3] | WBC Differential Counting (LYM) (% of Normal) [4, 11] | WBC Differential Counting (NEU) (% of Normal) [4, 11] | WBC (% of Normal) [4, 12] | WBC Differential Counting (LYM) (% of Normal) [4, 12] | WBC Differential Counting (NEU) (% of Normal) [4, 12] | release of the low-molecular-weight compound in the presence of excess nitrogen monoxide (HPLC) [5] | activity at 10 µM [6] [%] | inhibition at 10 µM [7] [%] | activity at 10 µM [8] [%] | hematological toxicity responses ([4]; single oral dose 200 mg/kg and 800 mg/kg, compared with the normal group) | efficacy in alleviating ulcerative colitis compared to tofacitinib ([9]; 25 mg/kg oral once daily, FIGS. 4 and 5) | efficacy on disease activity index (DAI) ([9]; DSS until day 5, drug from day 6, day 9 of the test, FIG. 5) | activity at 10 µM [10] [%] |
| --- | --- | --- | --- | --- | --- | --- | --- | --- | --- | --- | --- | --- | --- | --- | --- | --- | --- |
| C[C@@H]1CCN(C(=O)CC#N)C[C@@H]1N(C)c1ncnc2[nH]ccc12 [Tofacitinib, tofacitinib] | 400 | Statistically significant rheumatoid arthritis-alleviating efficacy was observed | statistically significant rheumatoid arthritis-alleviating efficacy was observed | hematological toxicity was observed | 81.1±31.3 % of Normal | 68.3±15.7 % of Normal | 62.1±4.7 % of Normal | 61.2±4.6 % of Normal | 56.4±7.9 % of Normal | – | – | – | – | – | – | – | – |
| C[C@@H]1CCN(C(=O)CC#N)C[C@@H]1N(C)c1ncnc2c1ccn2C(=O)Nc1ccc(N(C)C)cc1N [Example 4, N-(2-amino-4-(dimethylamino)phenyl)-4-(((3R,4R)-1-(2-cyanoacetyl)-4-methylpiperidin-3-yl)(methyl)amino)-7H-pyrrolo[2,3-d]pyrimidine-7-carboxamide] | – | – | – | – | – | – | – | – | – | reacted with excess nitrogen monoxide to release tofacitinib | 98.9 ± 0.03 | 79.5 ± 6.67 | 68.7 ± 0.74 | No hematological toxicity responses were observed | comparable or more superior efficacy | statistically significant efficacy was observed | 91 ± 0.01 |
